Data: the Bradley open melting point set (2014)
Structures can show the parent of a compound that is named as a salt.

| melting point [°C] | SMILES |
| --- | --- |
| 50 | CC(=O)c1ccc(Oc2ccccc2)cc1 [4'-phenoxyacetophenone] |
| 165 | O=C(O)c1ccc(C(=O)OC(=O)c2ccc(C(=O)O)cc2C(=O)O)c(C(=O)O)c1 [4,4'-(Oxydicarbonyl)diisophthalic acid] |
| 56 | CC(=O)CCc1ccc(CCC(C)=O)cc1 [4,4'-benzene-1,4-diyldibutan-2-one] |
| 201 | Nc1ccc(NC(=O)c2ccc(N)cc2)cc1 [4,4'-diaminobenzanilide] |
| 282 | Oc1ccc(-c2ccc(O)cc2)cc1 [4,4'-dihydroxybiphenyl] |
| 102 | COc1ccc(Nc2ccc(OC)cc2)cc1 [4,4'-dimethoxydiphenylamine] |
| 145 | CN(C)C(=S)NN [4,4-dimethyl-3-thiosemicarbazide] |
| -135 | C/C=C\C(C)(C)C [4,4-dimethyl-cis-2-pentene] |
| 181 | Clc1nc[nH]c1Cl [4,5-dichloroimidazole] |
| 207 | COc1cc(CC(=O)O)c([N+](=O)[O-])cc1OC [4,5-dimethoxy-2-nitrophenylacetic acid] |
| 248 | O=C1Nc2c(Cl)ccc(Cl)c2C1=O [4,7-dichloroisatin] |
| 206 | Oc1ccc(-n2ccnc2)cc1 [4-(1-imidazolyl)phenol] |
| 151 | Cc1ccc(NC(=S)NN)c(C)c1 [4-(2,4-dimethylphenyl)-3-thiosemicarbazide] |
| 149 | O=C1OC(c2ccccc2)=NC1=Cc1ccccc1F [4-(2-Fluoro-benzylidene)-2-phenyl-4H-oxazol-5-one] |
| 193 | O=C(O)/C=C/c1ccc(B(O)O)cc1 [4-(2-carboxyvinyl)benzeneboronic acid] |
| 76 | Nc1ccc(-c2cccs2)cc1 [4-(2-thienyl)aniline] |
| 130 | CCc1ccc(NC(=S)NN)cc1 [4-(4-ethylphenyl)-3-thiosemicarbazide] |
| 45 | O=C(O)CCCc1ccc(F)cc1 [4-(4-fluorophenyl)butyric acid] |
| 41 | COc1cc(CCC(C)=O)ccc1O [4-(4-hydroxy-3-methoxyphenyl)-2-butanone] |
| 59 | COc1ccc(CCCC(=O)O)cc1 [4-(4-methoxyphenyl)butanoic acid] |
| 131 | Nc1ccc(N2CCOCC2)cc1 [4-(4-morpholinyl)aniline] |
| 150 | O=[N+]([O-])c1ccc(N2CCOCC2)cc1 [4-(4-nitrophenyl)morpholine] |

| melting point [°C] | SMILES |
| --- | --- |
| 160 | Cc1ccc(C=C2N=C(c3ccccc3)OC2=O)o1 [4-(5-Methyl-furan-2-ylmethylene)-2-phenyl-4H-oxazol-5-one] |
| 75 | CN(C)c1ccc(C=O)cc1 [4-(Dimethylamino)benzaldehyd] |
| 163 | O=C(NC1CCC(O)CC1)OCc1ccccc1 (stereo not given) [4-(benzyloxycarbonylamino)cyclohexanol] |
| 198 | N#CCc1ccc(B(O)O)cc1 [4-(cyanomethyl)benzeneboronic acid] |
| 112 | CN(C)c1ccncc1 [4-(dimethylamino)pyridine] |
| 112 | O=C(O)COc1ccc(CO)cc1 [4-(hydroxymethyl)phenoxyacetic acid] |
| 210 | CSc1ccc(B(O)O)cc1 [4-(methylthio)benzeneboronic acid] |
| 123 | OB(O)c1ccc(OC(F)(F)F)cc1 [4-(trifluoromethoxy)benzeneboronic acid] |
| 119 | NNC(=O)c1ccc(C(F)(F)F)cc1 [4-(trifluoromethyl)benzhydrazide] |
| 221 | O=C(O)c1ccc(C(F)(F)F)cc1 [4-(trifluoromethyl)benzoic acid] |
| 118 | O=C(c1ccccc1)c1ccc(C(F)(F)F)cc1 [4-(trifluoromethyl)benzophenone] |
| 148 | O=C(O)c1cnccc1C(F)(F)F [4-(trifluoromethyl)nicotinic acid] |
| 168 | Nc1cc(Cl)c(O)c(Cl)c1 [4-Amino-2,6-dichlorophenol] |
| 188 | Nc1ccc(C(=O)O)cc1 [4-Aminobenzoic Acid] |
| 189 | Nc1ccc(C(=O)O)cc1 [4-Aminobenzoic acid] [listing 1 of 2 here] |
| 188 | Nc1ccc(C(=O)O)cc1 [4-Aminobenzoic acid] [listing 2 of 2 here] |
| 189 | Nc1ccc(O)cc1 [4-Aminophenol] |
| 64 | Cc1cc(O)ccc1Br [4-Brom-3-methylphenol] |
| 83.8 | CSc1nc(Cl)cc(N2CCCCC2)n1 [4-Chloro-2-(methylsulfanyl)-6-(piperidin-1-yl)pyrimidine] |
| 43.5 | CCc1ccc(O)cc1 [4-Ethylphenol] |
| 141 | N#Cc1ccc(O)c([N+](=O)[O-])c1 [4-Hydroxy-3-nitrobenzonitrile] |

More lines, now with the values behind:

| SMILES | melting point [°C] |
| --- | --- |
| Cc1cccc(I)c1 [3-iodotoluene] | -27 |
| O=C(O)CCS [3-mercaptopropionic acid] | 18 |
| COc1cc(B(O)O)ccc1C [3-methoxy-4-methylbenzeneboronic acid] | 193 |
| COc1ccc2c(c1)CC2=O [3-methoxybicyclo[4.2.0]octa-1,3,5-trien-7-one] | 52 |
| CC1=CC(=O)CC1 [3-methyl-2-cyclopenten-1-one] | 2 |
| CC1c2ccccc2C(=O)C1c1ccccc1 (stereo not given) [3-methyl-2-phenyl-2,3-dihydro-1H-inden-1-one] | 85 |
| Cc1ccc[nH]c1=O [3-methyl-2-pyridone] | 140 |
| Cc1ccc2cc3c(ccc4ccccc43)c3c2c1CC3 [3-methylcholanthrene] | 180 |
| CCCCCCCC(C)CC (stereo not given) [3-methyldecane] | -76 |
| CCCCC(C)CC (stereo not given) [3-methylheptane] | -121 |
| Cc1c[nH]c2ccccc12 [3-methylindole] | 96 |
| Cc1cc2ccccc2[n+]([O-])c1 [3-methylquinoline n-oxide] | 89 |
| CCCC1=NNC(=O)C1 [3-n-propyl-2-pyrazolin-5-one] | 208 |
| Nc1cccc([N+](=O)[O-])c1 [3-nitroaniline] | 113 |
| O=[N+]([O-])c1cccc(CO)c1 [3-nitrobenzyl alcohol] | 31 |
| O=[N+]([O-])c1cccc(CCl)c1 [3-nitrobenzyl_chloride] | 47 |
| O=[N+]([O-])c1cccc(-c2ccccc2)c1 [3-nitrobiphenyl] | 62 |
| O=C(O)Cc1cccc([N+](=O)[O-])c1 [3-nitrophenylacetic acid] | 119 |
| O=C(O)c1cccc([N+](=O)[O-])c1C(=O)O [3-nitrophthalic acid] | 212 |
| Cc1cccc([N+](=O)[O-])c1 [3-nitrotoluene] | 16 |
| O=C(OC1OC(=O)c2ccccc21)c1ccccc1 (stereo not given) [3-oxo-1,3-dihydro-2-benzofuran-1-yl benzoate] | 128 |
| N#CCC(=O)c1cccs1 [3-oxo-3-(2-thienyl)propionitrile] | 134 |
| CC12CCC(=O)CC1CCC1C2CCC2(C)C(OC=O)CCC12 (stereo not given) [3-oxoandrostan-17-yl formate] | 125 |
| O=c1cc(-c2ccccc2)[nH]o1 [3-phenyl-5-isoxazolone] | 152 |
| O=C(O)CCc1ccccc1 [3-phenylpropanoic_acid] | 49 |
| O=C(O)CCc1ccccc1 [3-phenylpropionic acid] | 48.5 |

| SMILES | melting point [°C] |
| --- | --- |
| O=C(O)CCN1C(=O)c2ccccc2C1=O [3-phthalimidopropionic acid] | 152 |
| Cc1ccc[n+]([O-])c1 [3-picoline n-oxide] | 38 |
| Cc1cccnc1 [3-picoline] | -18 |
| O=C(O)COc1cccnc1 [3-pyridyloxyacetic acid] | 211 |
| O=S1(=O)CC=CC1 [3-sulfolene] | 65 |
| CC(C)(C)c1cccc(O)c1 [3-tert-butylphenol] | 45 |
| COc1ccccc1-c1ccc(C=C(C(C)=O)C(C)=O)o1 [3-{[5-(2-Methoxyphenyl)-2-furyl]methylene}pentane-2,4-dione] | 146 |
| CC(=O)C1=CC[C@H]2[C@@H]3CC(=O)C4=C[C@@H](O)CC[C@]4(C)[C@H]3CC[C@]12C [3β-Hydroxypregna-4,16-diene-6,20-dione] | 169 |
| O=C1OC2(c3ccccc31)c1ccc(O)c(Br)c1Oc1c2ccc(O)c1Br [4',5'-dibromofluorescein] | 272 |
| CCC(=O)c1ccc(OCc2ccccc2)cc1 [4'-benzyloxypropiophenone] | 100 |
| CC(=O)Nc1ccc(Cl)cc1 [4'-chloroacetanilide] | 179 |
| O=C(/C=C/c1ccccc1)c1ccc(Cl)cc1 [4'-chlorochalcone] | 99 |
| CCOc1ccc(NC(C)=O)cc1 [4'-ethoxyacetanilide] | 135 |
| CC(=O)c1ccc(O)c(C(F)(F)F)c1 [4'-hydroxy-3'-(trifluoromethyl)acetophenone] | 176 |
| Cc1ccc2oc(-c3ccc(O)cc3)cc(=O)c2c1 [4'-hydroxy-6-methylflavone] | 241 |
| O=C(O)c1ccc(-c2ccc(O)cc2)cc1 [4'-hydroxybiphenyl-4-carboxylic acid] | 294 |
| O=C(/C=C/c1ccccc1)c1ccc(O)cc1 [4'-hydroxychalcone] | 176 |
| CC(=O)Nc1ccc(C(C)C)cc1 [4'-isopropylacetanilide] | 104 |
| CC(=O)c1ccc(C)c([N+](=O)[O-])c1 [4'-methyl-3'-nitroacetophenone] | 60 |
| CN(C)NC(=O)CCC(=O)O [4-(2,2-Dimethylhydrazino)-4-oxobutanoic acid] | 154 |
| CC(C)(c1ccccc1)c1ccc(O)cc1 [4-(2-Phenylpropan-2-yl)phenol] | 71.5 |
| Nc1ccc(N=Nc2ccccc2)cc1 [4-(Phenyldiazenyl)aniline] | 124 |
| Nc1ccc(Cl)cc1 [4-Chloroaniline] | 72.5 |
| Nc1ccc(Cl)cc1N [4-Chlorobenzene-1,2-diamine] | 68.5 |
| O=C(Cl)c1ccc(Cl)cc1 [4-Chlorobenzoyl chloride] | 13 |
| O=[N+]([O-])c1ccc(Cl)cc1 [4-Chloronitrobenzene] | 83.5 |
